Measurements taken from patent US11767332B2, “Glucose-sensitive albumin-binding derivatives” (Novo Nordisk A/S, priority 2017, dated 2023).
Entries after “also recorded” stand apart in the source; their conditions may differ.

How the values were obtained:
[1] = Alizarin red (ARS) assay, glucose binding affinity; details: 20 mM phosphate buffer pH 7.4, room temperature
Procedure: (§1) The alizarin-red binding assay is a colorimetric assay used to determine the inhibition affinity of boronate compounds to glucose. The assay is based on a colour shift of alizarin-red upon binding to boronate, which shift can be followed by change in absorbance in the 330-340 nm region.
(§2) After 5 minutes of centrifugation at 4000 rpm, the plate is placed in a multi-well spectrometer (SpectraMax, Molecular Devices) for absorption detection.
(§3) The analysis is carried out at room temperature with absorption readings at 330, 340 and 520 nm, respectively. Data obtained for absorption versus concentration of boronate is then fitted (Prism 7, GraphPad) with a sigmoidal function to obtain the Kd value of boronate and ARS.
(§4) Upon complete dissolution of the compound, 200 μM of Alizarin red (ARS) is added to the solution. The ARS-boronate solution is then aliquoted into a 96 multiwell plate (black, flat and clear bottom) 1:1 with appropriate carbohydrate. In particular, D-glucose and L-lactate solutions are prepared in a 20 mM phosphate buffer pH 7.4 at these concentrations respectively: 1000, 500, 250, 100, 50, 25, 10, 5, 2.5, 1, 0.25, 0.1 mM and 2500, 1000, 500, 100, 50, 10, 5, 1, 0.5, 0.1, 0.05, 0.01 mM. The plate with ARS-boronate mixed with carbohydrate is incubated 20 minutes at room temperature. After 5 minutes of centrifugation at 4000 rpm the plate is placed in a multiwell spectrometer (Spectra Max, Molecular Devices) for absorption detection.
(§5) The analysis is carried out at room temperature with absorption readings at 330, 340 and 520 nm, respectively.

[2] = Alizarin red (ARS) assay, lactate binding affinity; details: 20 mM phosphate buffer pH 7.4, room temperature, N.D. = not detectable
Procedure: as §1, §2, §3, §4, §5

[3] = molecular target: human serum albumin (HSA) (Homo sapiens (Human), UniProt P02768); assay: Fluorine (19F) NMR assay, glucose-sensitive albumin binding; details: 0.1 mM compound, 1 mM HSA, 50 mM glucose, pH 7.4
Procedure: Diboron compound is dissolved at a 0.1 mM concentration in a 50 mM phosphate buffer pH 7.4, 10% deuterated water (D2O), and mixed with 0, 0.1, 0.2, 0.5, 1 and 2 mM human serum albumin (HSA). An additional sample with diboron compound in the presence of 1 mM HSA and 50 mM glucose is prepared.
The samples are then placed into 3 mm standard NMR tube (Bruker) and transferred for analysis to a 400 Mhz Bruker spectrometer equipped with a cryoprobe suitable for fluorine detection. The experiment is carried out with standard Bruker zgflqn pulse sequence at room temperature with enough scans to have a S/N ratio over 50 for the 0 mM HSA sample. The spectra are processed, visualized and compared by TopSpin program (Bruker).
The binding of diboron compound to HSA is qualitatively assessed by decrease of the fluorine signal of the diboron compound upon binding to HSA. Release of the diboron compound from HSA upon addition of glucose is assessed by reappearance/increase of fluorine signal in the spectra.

[4] = Glucose affinity by 13C NMR assay; details: 1 mM glucose and 1 mM boronate, pH 7.4, 10 mM phosphate buffer, read-out: Binding Affinity [Kd Glucose (mM)] measured by 13C-NMR
Text: The ^13C Glucose assay is an NMR based assay that takes advantage of the slow chemical shift exchange between the unbound glucose (A state) and the glucose bound to diboronates (B state). If
In a slow exchange regime NMR signals from both states (A and B) are observed and reflect the distinct chemical shifts of the two states as there is not significant interconversion in the timescale of the NMR experiments. Therefore the intensity of each peak directly reports on the population of that state.
The dissociation constant (Kd) could be defined as Kd=([A][B])/[AB], given At as the total concentration of specie A and Bt as total concentration of specie B, in the case in which At−Bt, the product at the equilibrium AB is given by the following equation:
[formula] so that knowing At, Bt and AB at the equilibrium is possible to determine Kd. […]
The samples are then investigated with a standard Carbon HSQC in a Bruker NMR instrument (RT, 32 scans). The intensities of the peaks of free glucose and glucose bound to boronates are determined by the use of TOPSPIN program (Bruker). Difference between intensity of free glucose and glucose bound peaks gives the concentration of product AB at the equilibrium so that Kd can be calculated using equation 1.

Sequence of human serum albumin (HSA) (P02768 25-609): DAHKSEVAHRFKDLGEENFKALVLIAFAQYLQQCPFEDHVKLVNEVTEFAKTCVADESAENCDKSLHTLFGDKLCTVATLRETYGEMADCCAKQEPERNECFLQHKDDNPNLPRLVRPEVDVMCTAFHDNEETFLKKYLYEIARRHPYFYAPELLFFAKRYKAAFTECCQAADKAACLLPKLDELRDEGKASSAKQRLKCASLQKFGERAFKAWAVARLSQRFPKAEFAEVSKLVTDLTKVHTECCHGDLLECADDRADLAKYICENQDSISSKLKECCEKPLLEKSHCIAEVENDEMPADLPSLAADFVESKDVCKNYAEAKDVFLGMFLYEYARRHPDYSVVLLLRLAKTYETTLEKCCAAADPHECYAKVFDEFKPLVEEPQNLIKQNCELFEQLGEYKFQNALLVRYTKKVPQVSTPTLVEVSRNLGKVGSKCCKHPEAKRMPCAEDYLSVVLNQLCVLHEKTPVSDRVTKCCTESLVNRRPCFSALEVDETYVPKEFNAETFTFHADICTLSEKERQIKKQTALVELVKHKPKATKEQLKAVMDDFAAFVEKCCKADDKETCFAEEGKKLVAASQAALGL

SMILES | Kd [1] [mM] | Kd [2] [mM] | Kd [4] [mM] | Glucose-dependent binding to albumin (19F-NMR signal) [3]
NC(=O)CN(CCNC(=O)c1ccc(B(O)O)c(F)c1)C(=O)c1ccc(B(O)O)c(F)c1 [Example 3, N,N′-bis(4-borono-3-fluorobenzamido)-N-ethyl-glycine amide] | 2.7 | 16 | – | bind to albumin in a glucose-dependent manner; also recorded: glucose-sensitive albumin binding
O=C(O)CN=S(=O)(c1cc(B(O)O)cc(C(F)(F)F)c1)c1cc(B(O)O)cc(C(F)(F)F)c1 [Example 30, 2-((Bis(3-borono-5-(trifluoromethyl)phenyl)(oxo)-λ6-sulfanylidene)amino)acetic acid] | – | – | 0.06 | –
O=C(NC[C@H](NC(=O)c1cc2c(cc1F)COB2O)C(=O)O)c1cc2c(cc1F)COB2O [Example 16, (S)-2,3-Bis(5-fluoro-1-hydroxy-1,3-dihydrobenzo[c][1,2]oxaborole-6-carboxamido)propanoic acid] | 4.2 | 37 | – | –
O=C(O)CN(CCNC(=O)c1cc(Cl)c2c(c1)B(O)OC2)C(=O)c1cc(Cl)c2c(c1)B(O)OC2 [Example 32, N-(4-Chloro-1-hydroxy-1,3-dihydrobenzo[c][1,2]oxaborole-6-carbonyl)-N-(2-(4-chloro-1-hydroxy-1,3-dihydrobenzo[c][1,2]oxaborole-6-carboxamido)ethyl)glycine] | 3.2 | 60.6 | – | –
O=C(NCC[C@H](NC(=O)c1ccc(B(O)O)c(F)c1)C(=O)O)c1ccc(B(O)O)c(F)c1 [Example 4, (S)-2,4-bis(4-borono-3-fluorobenzamido)butanoic acid] | 2.6 | 6.5 | – | –

The remaining compounds from weak to strong by Kd [1], led by results:

Kd [1] [mM] | Kd [2] [mM] | Kd [4] [mM] | SMILES | Glucose-dependent binding to albumin (19F-NMR signal) [3]
2 | 20 | – | O=C(O)CNC(=O)c1cc(B(O)O)cc(C(=O)c2cc(F)cc(B(O)O)c2)c1 [Example 22, (3-Borono-5-(3-borono-5-fluorobenzoyl)benzoyl)glycine] | bind to albumin in a glucose-dependent manner
1.3 | 11 | – | O=C(O)CN(CCNC(=O)c1cc2c(c(C(F)(F)F)c1)COB2O)C(=O)c1cc2c(c(C(F)(F)F)c1)COB2O [Example 25, N-(1-Hydroxy-4-(trifluoromethyl)-1,3-dihydrobenzo[c][1,2]oxaborole-6-carbonyl)-N-(2-(1-hydroxy-4-(trifluoromethyl)-1,3-dihydrobenzo[c][1,2]oxaborole-6-carboxamido)ethyl)glycine] | bind to albumin in a glucose-dependent manner
0.8 | 100 | – | O=C(O)CN(CCNC(=O)c1cc2c(c(C(F)F)c1)COB2O)C(=O)c1cc2c(c(C(F)F)c1)COB2O [Example 31, N-(4-(Difluoromethyl)-1-hydroxy-1,3-dihydrobenzo[c][1,2]oxaborole-6-carbonyl)-N-(2-(4-(difluoromethyl)-1-hydroxy-1,3-dihydrobenzo[c][1,2]oxaborole-6-carboxamido)ethyl)glycine] | –
0.8 | 41 | – | O=C(O)CN=S(=O)(c1cc(OC(F)(F)F)cc(B(O)O)c1)c1cc(OC(F)(F)F)cc(B(O)O)c1 [Example 44, 2-((Bis(3-borono-5-(trifluoromethoxy)phenyl)(oxo)-λ6-sulfanylidene)amino)acetic acid] | –
0.8 | 40 | – | O=C(O)CN(CCNC(=O)c1ccc2c(c1F)B(O)OC2)C(=O)c1ccc2c(c1F)B(O)OC2 [Example 5, N-(7-Fluoro-1-hydroxy-1,3-dihydrobenzo[c][1,2]oxaborole-6-carbonyl)-N-(2-(7-fluoro-1-hydroxy-1,3-dihydrobenzo[c][1,2]oxaborole-6-carboxamido)ethyl)glycine] | –
0.3 | 4 | – | O=C(O)c1cc(B(O)O)cc(C(=O)c2cc(B(O)O)c(F)cc2F)c1 [Example 13, 3-Borono-5-(5-borono-2,4-difluorobenzoyl)benzoic acid] | –
0.2 | 10 | – | O=C(NC[C@H](NC(=O)c1cc2c(c(C(F)(F)F)c1)COB2O)C(=O)O)c1cc2c(c(C(F)(F)F)c1)COB2O [Example 26, (S)-2,3-Bis(1-hydroxy-4-(trifluoromethyl)-1,3-dihydrobenzo[c][1,2]oxaborole-6-carboxamido)propanoic acid] | bind to albumin in a glucose-dependent manner
